In patent US20140094512A1, “METHOD OF MODULATING THE DEGREE OF ADIPOSE TISSUE DEPOSITED INTRAMUSCULARLY” (priority 2012, published 2014):
pIC50: −log10 of the molar value.

Columns and labels:
[1] = tested on: bovine SVF cells; assay: retinoic acid induced inhibition of the differentiation of bovine SVF cells to adipocytes, Oil Red O staining; assay type: cell-based; details: for lipid accumulation compared with control cells / Oil Red O absorbance (OD minus blank), well1 / Oil Red O absorbance (OD minus blank), well2 / Oil Red O absorbance (OD minus blank), average: bovine SVF cells; for Oil Red O absorbance (OD minus blank), well1 / Oil Red O absorbance (OD minus blank), well2 / Oil Red O absorbance (OD minus blank), average: OD 530 nm, day 13; for Oil Red O absorbance (OD minus blank), average: control average 0.4465
Protocol: The efficiency of the RAR antagonists compounds No. 1, 3, 4 and 5 in blocking the antiadipogenic effect of ATRA on bovine cells was investigated. The cells used in this experiment were from a primary culture of the stromal-vascular fraction isolated from intramuscular fat of an Angus steer.
To assess the adipocyte differentiation state, the cells of a 12-well plate were stained with “Oil Red O” and after conveniently extraction of the dye from the lipid droplets the absorbance was measured with a microplate reader.
Cells of a bovine stromal-vascular fraction from intramuscular fat (passage 4) of one flask (75 cm^2) were trypsinized by treating the adherent cells with 2 ml 0.25% Trypsin-EDTA. The reaction was stopped with growth medium (DMEM, 1% (v/v) of antibiotic solution, 50 μg/ml gentamicin sulfate, 33 μM biotin, 17 μM D-pantothenate, 100 μM (+)-sodium L-ascorbate and 10% FCS heat inactivated) and 1.5 ml of this cell suspension were added to each well of a 12-well-plate. Cells were incubated at 37° C./5% CO2 in an incubator.
One day after cells reach confluency the growth medium was removed and adipogenesis initiation medium (growth medium/0.25 μM Dexamethasone/10 μg/ml Insulin/1 μM rosiglitazone) was added into 2 wells (i.e., in duplicate) without further compounds. Adipogenesis initiation medium additionally containing 0.1 μM ATRA was added into 2 wells without further compounds and alternative with 1 μM of compound No. 1, compound No. 3, compound No. 4 and compound No. 5 into 2 wells each of the 12-well plate.
After incubation for three days, the adipogenesis initiation medium was removed and 1.5 ml adipogenesis medium (growth medium/10 μg/ml Insulin/1 μM rosiglitazone) containing the substances as indicated above was added per well. The culture medium was replaced twice a week.
Thirteen days after addition of adipogenesis initiation medium the medium was removed and cells of the 12-well plate were fixed and stained with Oil Red O as previously described.
The absorbance is reported in Table 3 and FIG. 2 as the difference of the observed OD of extracted dye at 530 nm and a blank well OD value.

[2] = tested on: 3T3-L1 preadipocyte; assay: retinoic acid induced inhibition of 3T3-L1-preadipocyte differentiation, Oil Red O staining of lipid droplets; assay type: cell-based, mouse; details: for Oil Red O absorbance (OD minus blank), well1 / Oil Red O absorbance (OD minus blank), well2 / Oil Red O absorbance (OD minus blank), average: OD 492 nm; for Oil Red O absorbance (OD minus blank), well1 / Oil Red O absorbance (OD minus blank), well2: day 9; for Oil Red O absorbance (OD minus blank), average: day 9, control average 0.5263
Protocol: The effectiveness of the RAR alpha antagonists Compounds No. 2, 3 and 4 and the RAR pan antagonist Compound No. 1 in blocking the inhibitory effect of all-trans retinoic acid (ATRA) on 3T3-L1 preadipocyte differentiation was investigated.
In this experiment the “Oil Red O”-staining of lipid droplets is used as indicator of the degree of adipogenesis. After conveniently extraction of the dye from the lipid droplets the absorbance was measured with a microplate reader.
3T3-L1-cells (passage 7) of one flask (75 cm^2) were trypsinized by treating the adherent cells with 2 ml 0.25% Trypsin-EDTA. The reaction was stopped with fibroblast growth medium (DMEM/10% Newborn Calf Serum/1% Penicillin/Streptomycin) and 1 ml of this cellsuspension were added to each well of a 12-well-plate. Cells were incubated at 37° C./5% CO2 in an incubator.
One day after cells reach confluency the fibroblast growth medium was removed and adipogenesis initiation medium (DMEM/10% FBS/1 μM Dexamethasone/0.5 mM IBMX/1 μg/ml Insulin) was added into 2 wells (i.e., in duplicate) without further substances (control), into 2 wells with 0.1 μM ATRA+ alternative 1 μM of compound No. 4, Compound No. 2, Compound No. 3 and 1 into 2 wells with 0.1 μM ATRA.
After incubation for two days, the adipogenesis initiation medium was removed and 1.5 ml adipogenesis medium (DMEM/10% FBS/1 μg/ml Insulin) containing the substances as indicated above was added per well. After another three days of incubation, the medium was replaced by adipogenesis medium without any additional substances. The culture medium was replaced every 2 or 3 days.
Nine days after addition of adipogenesis initiation medium, the medium was removed from all wells. Cells were fixed and stained with Oil Red O as follows:
Fix the cells in 10% formalin in PBS, remove formalin, dry completely, wash with PBS, dry at room temperature; Prepare Oil red O working solution by diluting 3 parts Oil Red O stock solution with 2 parts dH2O; Add Oil red O working solution for 1 hour; Remove all Oil Red O and immediately add dH2O, wash with dH2O until water is colourless; Wash with 60% isopropanol, dry completely at room temperature; elute Oil red O by adding 60% isopropaniol/4% Triton X-100 solution for 1.5 hours; transfer to 96 well plate; measure absorption (optical density—OD) at 492 nm (Tecan Spectraflour plus)
The absorbance is reported in Table 2 and FIG. 1 as the difference of the observed OD of extracted dye at 492 nm and a blank well OD value.

[3] = target: T1, RARα (Homo sapiens, UniProt P10276); assay: luciferase based RA responsive reporter assay, RARα; assay type: cell-based; details: antagonist
T1 sequence (P10276 1-462): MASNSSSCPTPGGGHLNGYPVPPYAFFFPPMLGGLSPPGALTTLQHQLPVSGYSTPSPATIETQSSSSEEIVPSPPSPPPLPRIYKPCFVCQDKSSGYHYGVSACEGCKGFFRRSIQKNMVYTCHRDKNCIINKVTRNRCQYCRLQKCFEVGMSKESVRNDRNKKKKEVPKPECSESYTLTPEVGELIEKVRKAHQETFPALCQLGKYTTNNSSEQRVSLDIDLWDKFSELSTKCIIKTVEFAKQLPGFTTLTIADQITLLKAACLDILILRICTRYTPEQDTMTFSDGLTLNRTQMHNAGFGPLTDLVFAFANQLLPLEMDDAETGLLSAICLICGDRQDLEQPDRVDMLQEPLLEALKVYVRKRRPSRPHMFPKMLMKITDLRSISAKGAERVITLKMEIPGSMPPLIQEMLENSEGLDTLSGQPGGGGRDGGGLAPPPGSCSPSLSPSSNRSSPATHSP

[4] = tested on: RARs; assay: agonistic activity on RARs; assay type: cell-based
[5] = target: T2, RARβ (Homo sapiens, UniProt P10826); assay: luciferase based RA responsive reporter assay, RARβ; assay type: cell-based; details: antagonist
T2 sequence (P10826 1-455): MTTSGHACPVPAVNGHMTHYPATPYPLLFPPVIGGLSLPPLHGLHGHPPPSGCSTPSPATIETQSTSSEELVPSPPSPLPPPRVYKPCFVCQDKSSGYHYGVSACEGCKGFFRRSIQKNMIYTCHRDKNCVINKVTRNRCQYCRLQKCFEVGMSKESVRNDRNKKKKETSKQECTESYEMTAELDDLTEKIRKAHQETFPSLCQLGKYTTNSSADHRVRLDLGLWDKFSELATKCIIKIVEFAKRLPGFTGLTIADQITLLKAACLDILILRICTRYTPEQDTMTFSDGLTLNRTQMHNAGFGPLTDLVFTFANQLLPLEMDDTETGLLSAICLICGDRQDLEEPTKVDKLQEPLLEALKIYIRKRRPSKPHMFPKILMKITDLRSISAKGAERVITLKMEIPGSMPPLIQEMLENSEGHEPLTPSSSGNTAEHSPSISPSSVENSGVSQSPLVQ

[6] = target: T3, RARγ (Homo sapiens, UniProt P13631); assay: luciferase based RA responsive reporter assay, RARγ; assay type: cell-based; details: antagonist
T3 sequence (P13631 1-454): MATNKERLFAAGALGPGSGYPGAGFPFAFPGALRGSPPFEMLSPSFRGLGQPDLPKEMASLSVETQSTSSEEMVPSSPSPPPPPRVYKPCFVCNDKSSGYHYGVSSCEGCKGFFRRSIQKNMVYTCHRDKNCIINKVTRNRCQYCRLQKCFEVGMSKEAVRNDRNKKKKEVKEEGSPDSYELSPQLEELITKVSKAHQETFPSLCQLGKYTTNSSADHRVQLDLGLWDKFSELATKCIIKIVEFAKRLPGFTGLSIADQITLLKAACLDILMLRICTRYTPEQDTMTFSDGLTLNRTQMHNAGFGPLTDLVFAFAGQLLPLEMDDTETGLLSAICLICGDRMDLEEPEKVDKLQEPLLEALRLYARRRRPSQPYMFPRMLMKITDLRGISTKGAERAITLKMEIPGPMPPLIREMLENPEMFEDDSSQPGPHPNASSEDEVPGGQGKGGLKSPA

SMILES	lipid accumulation compared with control cells ([1]; 1 μM compound + 0.1 μM ATRA)	Oil Red O absorbance (OD minus blank), well1 ([1]; 1 μM compound + 0.1 μM ATRA)	Oil Red O absorbance (OD minus blank), well2 ([1]; 1 μM compound + 0.1 μM ATRA)	Oil Red O absorbance (OD minus blank), average ([1]; 1 μM compound + 0.1 μM ATRA)	Oil Red O absorbance (OD minus blank), well1 ([2]; 1 μM compound + 0.1 μM ATRA)	Oil Red O absorbance (OD minus blank), well2 ([2]; 1 μM compound + 0.1 μM ATRA)	Oil Red O absorbance (OD minus blank), average ([2]; 1 μM compound + 0.1 μM ATRA)	other results
CN1c2cc3c(cc2N=C(c2ccc(C(=O)O)cc2)c2ccc4ccccc4c21)C(C)(C)CCC3(C)C [Compound No. 5]	lipid accumulation of control cells is not reached	0.2915	0.3318	0.3117	–	–	–	–
Cc1ccc(C2=CC(C)(C)Oc3c(Br)cc(C(=O)Nc4cc(F)c(C(=O)O)c(F)c4)cc32)cc1 [Compound No. 2]	–	–	–	–	0.2264	0.2267	0.2266	–
CC1=C(/C=C/C(C)=C/C=C/C(C)=C/C(=O)O)C(C)(C)CCC1 [ATRA, all-trans retinoic acid]	–	–	–	–	–	–	–	amount of differentiated lipid-containing adipocytes ([2]; ATRA 0.1 μM alone): significantly reduced; Oil Red O absorbance (OD minus blank), well1 ([2]; ATRA 0.1 μM alone): 0.0925; Oil Red O absorbance (OD minus blank), well2 ([2]; ATRA 0.1 μM alone): 0.0727; Oil Red O absorbance (OD minus blank), average ([2]; ATRA 0.1 μM alone): 0.0826; Oil Red O absorbance (OD minus blank), well1 ([1]; ATRA 0.1 μM alone): 0.1409; Oil Red O absorbance (OD minus blank), well2 ([1]; ATRA 0.1 μM alone): 0.1924; Oil Red O absorbance (OD minus blank), average ([1]; ATRA 0.1 μM alone): 0.1667; amount of Oil Red O stainable lipid droplets ([1]; ATRA 0.1 μM alone, bovine cells): clearly decreased
CC1(C)CC=C(c2cnc3ccccc3c2)c2cc(C(=O)Nc3ccc(C(=O)O)cc3)ccc21 [Compound No. 3]	lipid accumulation of control cells is not reached	0.3504	0.4044	0.3774	0.3589	0.2996	0.3293	–
Cc1ccc(C2=CCC(C)(C)c3ccc(C#Cc4ccc(C(=O)O)cc4)cc32)cc1 [Compound No. 1]	lipid accumulation of control cells is not reached	0.2849	0.3493	0.3171	0.1736	0.1792	0.1764	–
Cc1ccc(C2=CC(C)(C)Oc3c(Br)cc(C(=O)Nc4ccc(C(=O)O)cc4)cc32)cc1 [Compound No. 4, 4-[[8-bromo-2,2-dimethyl-4-(p-tolyl)chromene-6-carbonyl]amino]benzoic acid]	–	0.5411	0.6229	0.5820	0.3361	0.3571	0.3466	pIC50 [3]: 8.40; agonistic activity on RARs [4]: lacks any significant agonistic activity; pIC50 [5]: 5.53; pIC50 [6]: 5.63
